Experimental data published in patent publication US20230129721A1, “STABILIZER FOR RADIOPHARMACEUTICALS AND RADIOPHARMACEUTICAL COMPOSITION COMPRISING THE SAME” (THE ASAN FOUNDATION, priority 2020, published 2023).

What was measured:
[1] = pH (paper) of [^18F]PI-2620 radiopharmaceutical composition over time at 40° C.; assay type: physicochemical
[2] = Radiochemical purity of [^18F]PI-2620 radiopharmaceutical composition over time at 40° C. by HPLC; assay type: physicochemical
Protocol: Fluoride ([^18F]) and 2 mg of a precursor were dissolved in dimethyl sulfoxide, and the reaction mixture was fluorinated using an SN2 reaction at a temperature of 100° C. or higher. Then, a protecting group was hydrolyzed with sulfuric acid, and the mixture was neutralized with sodium hydroxide, purified using high-performance liquid chromatography (HPLC) (purification conditions: Luna C18 250×10 mm, phosphate buffer:acetonitrile=70:30 (v/v), 5.0 mL/min, UV=254 nm), and then formulated (formulation composition: 100 mg of sodium ascorbate, 2 nM phosphate buffer, and 10% ethanol) to obtain the [^18F]PI-2620 compound having a radiochemical purity of 100% (FIG. 1).
[^18F]PI-2620 was formulated with ethanol, ascorbic acid, and a phosphate buffer, and the radiochemical purity of the radiopharmaceutical composition was then measured at the elapsed times of 0 hour, 2 hours, 4 hours, and 6 hours at a temperature of 40° C. using HPLC (analysis conditions: Luna C18 250×4.6 mm, phosphate buffer:acetonitrile=60:40 (v/v), 1.0 mL/min, UV=254 nm).
[^18F]PI-2620 was obtained as a compound having a radiochemical purity of 100% in the same manner as in Example 1. To further confirm the stability of the compound, 2 equivalents of sodium ascorbate used in Example 1 was added during a formulation process (formulation composition: 200 mg of sodium ascorbate, a 2 nM phosphate buffer, and 10% ethanol), and the radiochemical purity of the radiopharmaceutical composition was then measured in the same manner as in Example 1 at the elapsed times of 0 hour, 2 hours, 4 hours, and 6 hours at a temperature of 40° C. using high-performance liquid chromatography (HPLC)
[^18F]PI-2620 was obtained as a compound having a radiochemical purity of 100% in the same manner as in Example 1. To check the causes of a decrease in radiochemical purity, the radiochemical purity of the radiopharmaceutical composition was then measured in the same manner as in Example 1 at the elapsed times of 0 hour, 2 hours, 4 hours, and 6 hours at a temperature of 40° C. under three formulation conditions (Condition 1: ethanol and water for injection (formulation composition: 10% ethanol); Condition 2: ethanol and a phosphate buffer (formulation composition: a 2 nM phosphate buffer and 10% ethanol); Condition 3: ethanol and a 2×phosphate buffer (formulation composition: a 4 nM phosphate buffer and 10% ethanol)) using high-performance liquid chromatography (HPLC).
[^18F]PI-2620 was obtained as a compound having a radiochemical purity of 98% or more in the same manner as in Example 1. As a novel stabilizing agent, vitamin B1 (VB1), vitamin B6 (VB6), vitamin B8 (VB8), vitamin B10 (VB10), or vitamin B12 (VB12) (formulation composition: 10% ethanol and a 50 mg/mL vitamin concentration) was added to ethanol and water for injection, and the radiochemical purity of the radiopharmaceutical composition was measured in the same manner as in Example 1 at the elapsed times of 0 hour, 2 hours, 4 hours, and 6 hours at a temperature of 40° C. using high-performance liquid chromatography (HPLC). A preparation including no vitamin B was used as the control.
[^18F]PI-2620 was obtained as a compound having a radiochemical purity of 98% or more in the same manner as in Example 1, and formulated with ethanol and a phosphate buffer (formulation composition: a 2 nM phosphate buffer and 10% ethanol). As a novel stabilizing agent, vitamin B1 (VB1), vitamin B6 (VB6), vitamin B8 (VB8), or vitamin B10 (VB10) was added at a concentration of 50 mg/mL, and the radiochemical purity of the radiopharmaceutical composition was measured in the same manner as in Example 1 at the elapsed times of 0 hour, 2 hours, 4 hours, and 6 hours at a temperature of 40° C. using high-performance liquid chromatography (HPLC). A preparation in which sodium ascorbate was added to the same concentrations of ethanol and phosphate buffer was used as the control. […]

[3] = 10% ethanol, water for injection, 50 mg/mL vitamin, 0 hr
[4] = 10% ethanol, water for injection, 50 mg/mL vitamin, 2 hr
[5] = 10% ethanol, water for injection, 50 mg/mL vitamin, 4 hr
[6] = 10% ethanol, water for injection, 50 mg/mL vitamin, 6 hr
[7] = [^18F]PI-2620, ethanol and water for injection (10% ethanol), 50 mg/mL vitamin, no phosphate buffer, 0 hr
[8] = [^18F]PI-2620, ethanol and water for injection (10% ethanol), 50 mg/mL vitamin, no phosphate buffer, 2 hr
[9] = [^18F]PI-2620, ethanol and water for injection (10% ethanol), 50 mg/mL vitamin, no phosphate buffer, 4 hr
[10] = [^18F]PI-2620, ethanol and water for injection (10% ethanol), 50 mg/mL vitamin, no phosphate buffer, 6 hr
[11] = 2 nM phosphate buffer and 10% ethanol, vitamin 50 mg/mL (control: sodium ascorbate), 0 hr
[12] = 2 nM phosphate buffer and 10% ethanol, vitamin 50 mg/mL (control: sodium ascorbate), 2 hr
[13] = 2 nM phosphate buffer and 10% ethanol, vitamin 50 mg/mL (control: sodium ascorbate), 4 hr
[14] = 2 nM phosphate buffer and 10% ethanol, vitamin 50 mg/mL (control: sodium ascorbate), 6 hr
[15] = [^18F]PI-2620, 2 nM phosphate buffer and 10% ethanol, vitamin 50 mg/mL (control: sodium ascorbate), 0 hr
[16] = [^18F]PI-2620, 2 nM phosphate buffer and 10% ethanol, vitamin 50 mg/mL (control: sodium ascorbate), 2 hr
[17] = [^18F]PI-2620, 2 nM phosphate buffer and 10% ethanol, vitamin 50 mg/mL (control: sodium ascorbate), 4 hr
[18] = [^18F]PI-2620, 2 nM phosphate buffer and 10% ethanol, vitamin 50 mg/mL (control: sodium ascorbate), 6 hr

With C/C1=C2/[N-][C@H]([C@H](CC(N)=O)[C@@]2(C)CCC(=O)NC[C@H](C)OP(=O)([O-])O[C@H]2[C@@H](O)[C@@H](n3cnc4cc(C)c(C)cc43)O[C@@H]2CO)[C@]2(C)N=C(/C(C)=C3N=C(/C=C4N=C1[C@@H](CCC(N)=O)C\4(C)C)[C@@H](CCC(N)=O)[C@]\3(C)CC(N)=O)[C@@H](CCC(N)=O)[C@]2(C)CC(N)=O.[Co+2] (stereo in doubt) [VB12, cobalamin] the “PH (paper)” value [1, 3] was 6, the “PH (paper)” value [1, 4] was 7.5 and the “PH (paper)” value [1, 5] was 6.5. For the same compound, the “PH (paper)” value [1, 6] was 6.5, the “Purity (radiochemical purity)” value [2, 7] was 98.33% and the “Purity (radiochemical purity)” value [2, 8] was 98.99%. For the same compound, the “Purity (radiochemical purity)” value [2, 9] was 98.7% and the “Purity (radiochemical purity)” value [2, 10] was 98.29%.
For O=C1O[C@H]([C@@H](O)CO)C([O-])=C1O.[Na+] [Na ascorbate, sodium ascorbate], the “PH (paper)” value [1, 11] was 6, the “PH (paper)” value [1, 12] was 6 and the “PH (paper)” value [1, 13] was 6. The “PH (paper)” value [1, 14] was 6, the “PH (paper)” value ([1]; 100 mg sodium ascorbate, 2 nM phosphate buffer, 10% ethanol, 0 hr) was 6 and the “PH (paper)” value ([1]; 100 mg sodium ascorbate, 2 nM phosphate buffer, 10% ethanol, 2 hr) was 6. For the same compound, the “PH (paper)” value ([1]; 100 mg sodium ascorbate, 2 nM phosphate buffer, 10% ethanol, 4 hr) was 6, the “PH (paper)” value ([1]; 100 mg sodium ascorbate, 2 nM phosphate buffer, 10% ethanol, 6 hr) was 6 and the “PH (paper)” value ([1]; 200 mg sodium ascorbate, 2 nM phosphate buffer, 10% ethanol, 0 hr) was 6. The “PH (paper)” value ([1]; 200 mg sodium ascorbate, 2 nM phosphate buffer, 10% ethanol, 2 hr) was 6, the “PH (paper)” value ([1]; 200 mg sodium ascorbate, 2 nM phosphate buffer, 10% ethanol, 4 hr) was 6 and the “PH (paper)” value ([1]; 200 mg sodium ascorbate, 2 nM phosphate buffer, 10% ethanol, 6 hr) was 6. The “Purity (radiochemical purity)” value [2, 15] was 99.05%, the “Purity (radiochemical purity)” value [2, 16] was 95.53% and the “Purity (radiochemical purity)” value [2, 17] was 93.77%. For the same compound, the “Purity (radiochemical purity)” value [2, 18] was 90.04%, the “Purity (radiochemical purity)” value ([2]; [^18F]PI-2620, 100 mg sodium ascorbate, 2 nM phosphate buffer, 10% ethanol, 0 hr) was 99.05% and the “Purity (radiochemical purity)” value ([2]; [^18F]PI-2620, 100 mg sodium ascorbate, 2 nM phosphate buffer, 10% ethanol, 2 hr) was 95.53%. For the same compound, the “Purity (radiochemical purity)” value ([2]; [^18F]PI-2620, 100 mg sodium ascorbate, 2 nM phosphate buffer, 10% ethanol, 4 hr) was 93.77%, the “Purity (radiochemical purity)” value ([2]; [^18F]PI-2620, 100 mg sodium ascorbate, 2 nM phosphate buffer, 10% ethanol, 6 hr) was 90.04% and the “Purity (radiochemical purity)” value ([2]; [^18F]PI-2620, 200 mg sodium ascorbate, 2 nM phosphate buffer, 10% ethanol, 0 hr) was 99.47%. The “Purity (radiochemical purity)” value ([2]; [^18F]PI-2620, 200 mg sodium ascorbate, 2 nM phosphate buffer, 10% ethanol, 2 hr) was 96.95%, the “Purity (radiochemical purity)” value ([2]; [^18F]PI-2620, 200 mg sodium ascorbate, 2 nM phosphate buffer, 10% ethanol, 4 hr) was 95.25% and the “Purity (radiochemical purity)” value ([2]; [^18F]PI-2620, 200 mg sodium ascorbate, 2 nM phosphate buffer, 10% ethanol, 6 hr) was 93.00%.
With Cc1ncc(C[n+]2csc(CCO)c2C)c(N)n1 [VB1, thiamine] the “PH (paper)” value ([1]; 2 nM phosphate buffer and 10% ethanol, vitamin 0.78 mg/mL, 0 hr) was 6, the “PH (paper)” value ([1]; 2 nM phosphate buffer and 10% ethanol, vitamin 0.78 mg/mL, 2 hr) was 6 and the “PH (paper)” value ([1]; 2 nM phosphate buffer and 10% ethanol, vitamin 0.78 mg/mL, 4 hr) was 6. The “PH (paper)” value ([1]; 2 nM phosphate buffer and 10% ethanol, vitamin 0.78 mg/mL, 6 hr) was 6, the “PH (paper)” value [1, 11] was 5 and the “PH (paper)” value [1, 12] was 5.5. The “PH (paper)” value [1, 13] was 5.5, the “PH (paper)” value [1, 14] was 5.5 and the “PH (paper)” value [1, 3] was 8. For the same compound, the “PH (paper)” value [1, 4] was 7, the “PH (paper)” value [1, 5] was 7 and the “PH (paper)” value [1, 6] was 7. For the same compound, the “Purity (radiochemical purity)” value ([2]; [^18F]PI-2620, 2 nM phosphate buffer and 10% ethanol, vitamin 0.78 mg/mL, 0 hr) was 99.66%, the “Purity (radiochemical purity)” value ([2]; [^18F]PI-2620, 2 nM phosphate buffer and 10% ethanol, vitamin 0.78 mg/mL, 2 hr) was 99.21% and the “Purity (radiochemical purity)” value ([2]; [^18F]PI-2620, 2 nM phosphate buffer and 10% ethanol, vitamin 0.78 mg/mL, 4 hr) was 97.63%. For the same compound, the “Purity (radiochemical purity)” value ([2]; [^18F]PI-2620, 2 nM phosphate buffer and 10% ethanol, vitamin 0.78 mg/mL, 6 hr) was 97.12%, the “Purity (radiochemical purity)” value [2, 15] was 98.79% and the “Purity (radiochemical purity)” value [2, 16] was 98.46%. The “Purity (radiochemical purity)” value [2, 17] was 98.97%, the “Purity (radiochemical purity)” value [2, 18] was 98.94% and the “Purity (radiochemical purity)” value [2, 7] was 98.92%. For the same compound, the “Purity (radiochemical purity)” value [2, 8] was 98.97%, the “Purity (radiochemical purity)” value [2, 9] was 99.1% and the “Purity (radiochemical purity)” value [2, 10] was 98.94%.
In the case of Nc1ncnc2c1ncn2[C@@H]1O[C@H](COP(=O)(O)O)[C@@H](O)[C@H]1O [VB8, adenosine phosphate], the “PH (paper)” value [1, 11] is reported as 6, the “PH (paper)” value [1, 12] is reported as 6 and the “PH (paper)” value [1, 13] is reported as 6. For the same compound, the “PH (paper)” value [1, 14] was 6, the “PH (paper)” value [1, 3] was 6 and the “PH (paper)” value [1, 4] was 6. The “PH (paper)” value [1, 5] was 6, the “PH (paper)” value [1, 6] was 6 and the “Purity (radiochemical purity)” value [2, 15] was 98.06%. The “Purity (radiochemical purity)” value [2, 16] was 95.43%, the “Purity (radiochemical purity)” value [2, 17] was 92.46% and the “Purity (radiochemical purity)” value [2, 18] was 87.76%. The “Purity (radiochemical purity)” value [2, 7] was 98.92%, the “Purity (radiochemical purity)” value [2, 8] was 99.14% and the “Purity (radiochemical purity)” value [2, 9] was 98.8%. For the same compound, the “Purity (radiochemical purity)” value [2, 10] was 98.2%.
For [18F]c1cc(-c2ccc3c(n2)[nH]c2ccncc23)ccn1 [[^18F]PI-2620], the “Purity (radiochemical purity)” value ([2]; [^18F]PI-2620 under three formulation conditions (ethanol with or without phosphate buffer), 6 hr) was “not decomposed at a high temperature”.
